Data reported in patent US20240110004A1 (Northwestern University, priority 2022, published 2024).
Where no end group is shown, it is not given here.

Columns and labels:
HdhQ111 cells = experiment: Cell viability in HdhQ111 cells after enzyme or serum pretreatment of the compounds; format: cell-based, mouse; settings: relative to compound without pretreatment, 3 μM with respect to peptide
Protocol: FIG. 10A-10B: Cell viability in HdhQ111 mouse striatal cells after enzyme pretreatment.
Each degradation experiment was repeated three times.
To verify that the PLPs retain bioactivity after being exposed to enzymes or serum treatments, the viability of HD mouse mutant striatal HdhQ111 cells was assessed following treatment with HV3-TAT and P1. […] Cells were maintained at 33° C. and 5% CO2 with a relative humidity of 95%. HdQ111 cells were plated in 96-well plates at a density of 5000 per well and then left to attach for 24 h. Cells were treated with HV3-TAT or PLPs at 3 μM with respect to peptide once a day, for 3 days. The medium was replaced every day. After 72 h, cells were washed 3 times with PBS buffer. At this point, 20 μL of CTB reagent in 80 uL of medium was added, and the cells incubated for 3 hours at 37° C. Fluorescence was measured at 590 nm with excitation at 560 nm using a Perkin Elmer EnSpire plate reader. The average background fluorescence of CTB in media without cells was subtracted from the average fluorescence readings of the experimental wells. Viability was calculated as the average background-subtracted signal in a well compared to that of a negative control well (treatment with vehicle or media). Three replicates were performed for each independent sample. 10% DMSO was used as a positive control and untreated cells in complete medium as a negative control. […]

R6/2 mice = experiment: In vivo efficacy in R6/2 Huntington's disease mice, behavioral analysis, body weight, survival; design: species or system mouse; settings: for open field horizontal activity / open field total distance / open field vertical activity: 13 weeks; for survival: over the saline control; for average percent of body weight gain: week 13
From the text: FIG. 31A-31F: For each of FIG. 31A-31F, data is shown reflecting the results of 3 separate studies (i.e., “Batch 1+2+3”) conducted under identical conditions; “veh” refers to the vehicle saline control. For each of FIG. 31A-31C at week 6, WT: n=15; WT+P1: n=15; R62 veh: n=22; R62+HV3-TAT: n=32; and R62+P1: n=16. For each of FIG. 31D-31F at week 6, WT: n=15; WT+P1: n=15; R62 veh: n=17; R62+HV3-TAT: n=30; and R62+P1: n=13. FIG. 31A depicts the average percent of body weight gain for mice subjected to each treatment. From top to bottom, the week 13 data points correspond to: WT+P1 (˜43%); WT (˜39%); R62+P1 (˜1%); R62+HV3-TAT (˜ […]); and R62 (˜-9%). FIG. 31B depicts the survival rate for each treatment group over time. 100% survival rate for WT veh and WT+P1. R62+P1 as compared to R62 veh: p-value=0.0454; R62+HV3-TAT as compared to R62 veh: p-value=0.0201. FIG. 31C depicts the average hindlimb clasping score for each treatment group at weeks 11, 12, and 13. For each week: R62 mice treated with vehicle (left), R62 treated with HV3-TAT (middle), and R62 treated with P1 (right). p-values in week 11: 0.0145 (top—R62 veh as compared to R62+P1), 0.0432 (middle—R62 veh as compared to R62+HV3-TAT), and 0.6051 (bottom—R62+HV3-TAT as compared to R62+P1); week 12: 0.0037 (top—R62 veh as compared to R62+P1), 0.0263 (middle—R62 veh as compared to R62+HV3-TAT), and 0.3957 (bottom—R62+HV3-TAT as compared to R62+P1); week 13: 0.0031 (top—R62 veh as compared to R62+P1), 0.0177 (middle—R62 veh as compared to R62+HV3-TAT), and 0.4938 (bottom—R62+HV3-TAT as compared to R62+P1). FIG. 31D depicts results from the open field tests representing the total distance traveled at final data collection. p-value for: WT veh as compared to R62 veh: <0.0001; WT+P1 as compared to R62 veh: <0.0001; R62 veh as compared to R62+HV3-TAT: 0.0021; R62 veh as compared to R62+P1: <0.0001; R62+HV3-TAT as compared to R62+P1: 0.1486. FIG. 31E depicts results from the horizontal activity tests. p-value for: WT veh as compared to R62 veh: <0.0001; WT+P1 as compared to R62 veh: <0.0001; R62 veh as compared to R62+HV3-TAT: 0.0262; R62 veh as compared to R62+P1: <0.0001; R62+HV3-TAT as compared to R62+P1: 0.0083. FIG. 31F depicts results from the vertical activity tests. P-value for: WT veh as compared to R62 veh: 0.0004; WT+P1 as compared to R62 veh: <0.0001; R62 veh as compared to R62+HV3-TAT: 0.2879; R62 veh as compared to R62+P1: 0.0375; R62+HV3-TAT as compared to R62+P1: 0.6222.
In vivo Efficacy Methods—Behavioral Analysis: All experiments in animals were conducted in accordance with protocols approved by the Institutional Animal Care and Use Committee of Northwestern University and were performed based on the National Institutes of Health Guide for the Care and Use of Laboratory Animals. HV3-TAT at its operating dose, saline (negative control), and P1 at a dose of […] (3 mg/kg/day with respect to peptide) were administered to Huntington's phenotype R6/2 (sometimes referred to herein as R62) mice and WT mice via Alzet osmotic pump from 6 to 13 weeks of age. The accepted HD phenotype is a decrease in motor coordination, general motility and body weight in male mice as they age from 5 to 13 weeks. A key phenotype of R6/2 mice is hindlimb clasping. Accordingly, hindlimb clasping was assessed with the tail suspension test weekly from the ages 7 to 13 weeks in R6/2 mice and WT littermates. Mice were suspended by the tail for 60 sec and the latency for the hindlimbs or all four paws to clasp was recorded using the following score system: clasping over 10 sec, score 3; 5-10 sec, score 2; 0-5 sec, score 1; 0 sec, score 0. The body weight and survival rate of HD mice and WT littermates were also recorded throughout the study period. For open field motor activity, gross locomotor activity was assessed in R6/2 mice and age-matched WT littermates at the ages of 13 weeks. […]

P1: PLP homopolymer having peptide side chains of SEQ ID: 1 (HVLVMSATRR), made by ROMP of norbornene peptide monomer M1 (also: side chains of polynorbornene homopolymer (PLP, ROMP of norbornene peptide monomer))
cell viability after enzyme or serum pretreatment of the compound (HdhQ111 cells): did not have any significant change in cell viability | open field horizontal activity (R6/2 mice): improved | open field total distance (R6/2 mice): improved | open field vertical activity (R6/2 mice): improved | survival (R6/2 mice): significantly extending survival | average percent of body weight gain (R6/2 mice): ~1%

peptide sequence HVLVMCAT (HV3) coupled to the cell penetrating, HIV-derived TAT peptide [HV3-TAT, reference compound]
cell viability after enzyme or serum pretreatment of the compound (HdhQ111 cells): significant decrease in cell viability | open field horizontal activity (R6/2 mice): improved | open field total distance (R6/2 mice): improved | open field vertical activity (R6/2 mice): improved | survival (R6/2 mice): significantly extending survival | hindlimb clasping (R6/2 mice; tail suspension test, weekly): longer clasping time than P1 treated mice | average percent of body weight gain (R6/2 mice): ~4%
